Series [1] concerns the target T1, GABAA α1β2γ2 (Homo sapiens, UniProt P14867+P18507+P47870).
T1 construct: expressed in transfected cells; host or cells: HEK293
As to the kind of experiment: 35S-TBPS binding assay (competition), HEK293 membranes with GABAA α1β2γ2 construct. As to conditions: 35S-TBPS (5 nM) competition, GABA 1 μM, 2 hours at room temperature, read-out: pIC50 α1β2γ2 (converted). As for the experimental part: (§1) The binding assay is based on the assay reported by K. Gee et al., Eur. J. Pharmacol. 1987 136:419-423.
(§2) Homogenate preparation: Membrane preparations of HEK293 cells containing either GABAA α1β2γ2 or GABAA α2β3γ2 constructs were performed according to a modified procedure previously described by Gee et al. (supra). Whole HEK 293 cells in D-PBS (calcium/magnesium free) buffer adjusted to pH 7.4 were centrifuged at 7,280×g for 20 m. After discarding the supernatant, the pellet was resuspended in the buffer and centrifuged at 1,820×g for 10 m. Afterwards, the supernatant was discarded and the pellet resuspended in ice-cold preparation buffer (50 mM Tris HCl pH 7.4, 4° C. and 150 mM KCl), homogenized for 30 sec using a Brinkmann Polytron PT3000 (setting 6) and centrifuged at 48,000×g for 30 m at 4° C. The centrifugation and homogenization procedure was repeated two more times for a total of 3 times before resuspending the membranes at a final protein concentration of 0.5 mg/mL. Aliquots (30 mL) of the final membrane preparation were then centrifuged at 48,000×g for 30 m, and the resulting pellets were stored at −80° C. until required.
(§3) 35S-TBPS binding assay. Membrane pellets containing either GABAA α1β2γ2 or GABAA α2β3γ2 constructs were thawed on ice, resuspended in 10 mL of 50 mM Tris HCl pH 7.4, 4° C. and 150 mM KCl and centrifuged at 48,000×g, 30 m at 4° C. After discarding the supernatant, the pellet was resuspended in 30 mL incubation buffer (50 mM Tris HCl pH 7.4, 25° C. and 150 mM KCl) at approximately 0.5 mg/mL protein concentration. In ^35S-TBPS competition studies, HEK293 membranes were incubated with ^35S-TBPS (5 nM final) and GABA (1 μM) in the absence or presence of competitor at concentrations ranging from 0.01 nM to 10 μM in 125 μL incubation buffer for 2 hours at room temperature (˜22° C.). Non-specific binding was assayed with picrotoxin (100 μM final concentration). […] Measurement of bound radioactivity was performed using a Packard Microplate 96 well topcount scintillation counter. […]

The target of series [2] is T2, GABAA α2β3γ2 (Homo sapiens, UniProt P18507+P28472+P47869).
T2 construct: expressed in transfected cells; host or cells: HEK293
In words: 35S-TBPS binding assay (competition), HEK293 membranes with GABAA α2β3γ2 construct. Conditions: 35S-TBPS (5 nM) competition, GABA 1 μM, 2 hours at room temperature, read-out: pIC50 α2β3γ2 (converted). The method, then: as §1, §2, §3

SMILES strings stand for the structures. Where “and” joins values, the source holds several entries; their conditions need not be identical. Identical values can stand only once. Counter-ions that a name gives are not always drawn.

Consider `Cn1nc2c(-c3ccc(Cl)cc3Cl)cccc2c1S(N)(=O)=O` [D3, 7-(2,4-Dichloro-phenyl)-2-methyl-2H-indazole-3-sulfonic acid amide], for which the melting point lay within 170.7 to 173.6 °C.

`CC(=O)N(C)Cc1c2cccc(-c3ccc(Cl)cc3Cl)c2nn1C.Cl`: the melting point lay in the range of 146.2 to 147.8 °C. As for `Cc1c2cccc(-c3ccc(Cl)cc3Cl)c2nn1C` [A14, 7-(2,4-Dichloro-phenyl)-2,3-dimethyl-2H-indazole; hydrochloride], the IC50 is 295 nM in series [1] and 30.9 nM in series [2]. Turning to `CC/C=C(\CCC)c1c2cccc(-c3ccc(Cl)cc3Cl)c2nn1C.Cl`, the melting point was in the range of 148 to 150 °C. Still for that read-out and setting: then `Cc1cc(C)c(-c2cccc3c(N(C)C)n(C)nc23)c(C)c1.Cl`, with 169.9 to 171.9 °C. Consider `Cn1nc2c(-c3ccc(Cl)cc3Cl)cccc2c1CO` [E4], for which the melting point is 197.3 to 201.2 °C.

Turning to `C=Cc1c2cccc(-c3ccc(Cl)cc3Cl)c2nn1C` [A17, 7-(2,4-Dichloro-phenyl)-2-methyl-3-vinyl-2H-indazole], the results for the IC50 in series [1] and in series [2] were 1170 nM and 26.3 nM, respectively. Turning to `COc1ccc(-c2cccc3c(N(C)C)n(C)nc23)c(C)c1.Cl`, the melting point was 166 to 167 °C.

Take `Cc1cc(C#N)ccc1-c1cccc2cn(C)nc12` [A6, 3-Methyl-4-(2-methyl-2H-indazol-7-yl)-benzonitrile]: the melting point fell in the range of 101 to 105 °C. Still for that read-out and setting: the figure for `CCCN(CCC)c1c2cccc(-c3ccc(Cl)cc3Cl)c2nn1C.Cl` is 139 to 140 °C; for `COCc1c2cccc(-c3ccc(Cl)cc3Cl)c2nn1C` [E3, 7-(2,4-Dichloro-phenyl)-3-methoxymethyl-2-methyl-2H-indazole] it is 119 to 120.9 °C; for `CN(C)C(=O)Nc1c2cccc(-c3ccc(Cl)cc3Cl)c2nn1C` [C15, 3-[7-(2,4-Dichloro-phenyl)-2-methyl-2H-indazol-3-yl]-1,1-dimethyl-urea] it is 123.3 to 126.3 °C.

In turn, `Cn1nc2c(-c3ccc(Cl)cc3Cl)cccc2c1Br` [A27, 3-Bromo-7-(2,4-dichloro-phenyl)-2-methyl-2H-indazole] showed a melting point of 137 to 139 °C. Besides, the IC50 in series [1] is 575 nM. In addition, the IC50 in series [2] was 13.5 nM. For the compound `Cn1cc2nccc(-c3ccc(Cl)cc3Cl)c2n1` [A35, 7-(2,4-Dichloro-phenyl)-2-methyl-2H-pyrazolo[4,3-b]pyridine], the melting point lay in the range of 160.5 to 162.8 °C. As to `Cn1nc2c(-c3ccc(Cl)cc3Cl)cccc2c1NS(C)(=O)=O` [D15, N-[7-(2,4-Dichloro-phenyl)-2-methyl-2H-indazol-3-yl]-methanesulfonamide], the melting point lay within 171.3 to 173.2 °C. `Cn1nc2c(-c3ccc(Cl)cc3Cl)cccc2c1CNC(=O)N1CCOCC1` [C11, Morpholine-4-carboxylic acid [7-(2,4-dichloro-phenyl)-2-methyl-2H-indazol-3-ylmethyl]-amide] returned a melting point of 98.8 to 104.5 °C.

Regarding `Cn1nc2c(-c3ccc(Cl)cc3Cl)cccc2c1COC(N)=O`, the melting point was in the range of 184 to 185.5 °C.

Compound `Cn1cc2cncc(-c3ccc(Cl)cc3Cl)c2n1` [A34, 7-(2,4-Dichloro-phenyl)-2-methyl-2H-pyrazolo[4,3-c]pyridine] yielded a melting point of 153.9 to 155.3 °C. As for `C=Cc1c2cccc(-c3c(C)cc(C)cc3C)c2nn1C` [A18, 2-Methyl-7-(2,4,6-trimethyl-phenyl)-3-vinyl-2H-indazole], the melting point is 84.9 to 95.4 °C and 85 to 95 °C. In turn, `Cn1nc2c(-c3ncc(Cl)cc3Cl)cccc2c1Br` [A32, 3-Bromo-7-(3,5-dichloro-pyridin-2-yl)-2-methyl-2H-indazole] returned a melting point of 154.5 to 156.2 °C. For the compound `CNCc1c2cccc(-c3ccc(Cl)cc3Cl)c2nn1C.Cl`, the melting point lay within 211.1 to 213 °C. `Cl.Cn1cc2cccc(-c3ccc(Cl)cc3Cl)c2n1` yielded a melting point of 133 to 147 °C. Compound `Cn1nc2c(-c3ccc(Cl)cc3Cl)cccc2c1S(C)(=O)=O` [D-2, 3-Methanesulfonyl-2-methyl-7-(2,4-dichloro-phenyl)-2H-indazole] came in with a melting point of 182.1 to 183.4 °C. Compound `CC(=O)OCc1c2cccc(-c3ccc(Cl)cc3Cl)c2nn1C` [E5, Acetic acid [7-(2,4-dichloro-phenyl)-2-methyl-2H-indazol-3-yl]-methyl ester] returned a melting point of 131.7 to 135.2 °C.

`CN(C)C(=O)OCc1c2cccc(-c3ccc(Cl)cc3Cl)c2nn1C` [E6, Dimethyl-carbamic acid 7-(2,4-dichloro-phenyl)-2-methyl-2H-indazol-3-ylmethyl ester] registered a melting point of 125.2 to 128 °C. The compound `Cn1nc2c(-c3ccc(Cl)cc3Cl)cccc2c1S(=O)(=O)CCO` [D5, 2-[7-(2,4-Dichloro-phenyl)-2-methyl-2H-indazole-3-sulfonyl]-ethanol] gave a melting point of 157.8 to 161.7 °C. Compound `CN(C)C(=O)NCc1c2cccc(-c3ccc(Cl)cc3Cl)c2nn1C` [C13, 3-[7-(2,4-Dichloro-phenyl)-2-methyl-2H-indazol-3-ylmethyl]-1,1-dimethyl-urea] had a melting point of 101.9 to 105.1 °C.

For the compound `COC(=O)NCc1c2cccc(-c3ccc(Cl)cc3Cl)c2nn1C.Cl`, the melting point was in the range of 146.3 to 148.6 °C.

Take `C#Cc1c2cccc(-c3ccc(Cl)cc3Cl)c2nn1C` [A20, 7-(2,4-Dichloro-phenyl)-3-ethynyl-2-methyl-2H-indazole]: the melting point lay in the range of 129.9 to 130.9 °C. In turn, `Cc1cc(C)c(-c2cccc3c(C(C)O)n(C)nc23)c(C)c1` (stereo not drawn) [E1, 1-[2-Methyl-7-(2,4,6-trimethyl-phenyl)-2H-indazol-3-yl]-ethanol] returned a melting point of 246 to 247 °C.

Regarding `Cl.Cn1cc2ccnc(-c3ccc(Cl)cc3Cl)c2n1`, the melting point lay in the range of 190.9 to 195.5 °C. On the same count and under the same terms, the figure for `Cl.Cn1nc2c(-c3ccc(Cl)cc3Cl)cccc2c1CNN` is 172.5 to 176 °C. `Cn1nc2c(-c3ccc(Cl)cc3Cl)cccc2c1C#N` [A29, 7-(2,4-Dichloro-phenyl)-2-methyl-2H-indazole-3-carbonitrile] came in with a melting point of 137 to 139 °C. Consider `Cc1cc(C)c(-c2cccc3cn(C)nc23)c(C)c1` [A5, 2-Methyl-7-(2,4,6-trimethyl-phenyl)-2H-indazole], for which the melting point lay in the range of 180 to 182 °C.

`CO/N=C\c1c2cccc(-c3ccc(Cl)cc3Cl)c2nn1C` [A22, 7-(2,4-Dichloro-phenyl)-2-methyl-2H-indazole-3-carbaldehyde O-methyl-oxime] came in with a melting point of 159.2 to 160.5 °C.

In general, melting point refers to the temperature, or range, at which the solid turns liquid.

Source of the values: patent publication US7365211B2, “Heterocyclic GABAA subtype selective receptor modulators” (Roche Palo Alto LLC, priority 2003, dated 2008).
